# From US20190105367A1, “ANTIMICROBIAL 4-OXOQUINOLIZINES” (Emergent Product Development Gaithersburg Inc., priority 2011, published 2019)
# Read-outs that look alike come from different tables or passages of the source.
# What was measured:
# [1] = system: A. baumannii J2; test: Preliminary MBC without and with sub-inhibitory polymyxin B (Example 4); assay type: cell-based, Acinetobacter baumannii; settings: Acinetobacter baumannii, J2, read-out: MBC +[…] PB, A. baumannii J2; +[…] polymyxin B; preliminary MBC; 1st experiment
# [2] = system: A. baumannii A489; test: as above; assay type: cell-based, Acinetobacter baumannii; settings: Acinetobacter baumannii, preliminary MBC
# [3] = system: A. baumannii NCTC 13301; test: MIC without and with sub-inhibitory polymyxin B (Example 4); assay type: cell-based, Acinetobacter baumannii; settings: A. baumannii NCTC 13301; +[…] PB; 2nd experiment
# [4] = system: A. baumannii J2; test: as above; assay type: cell-based, Acinetobacter baumannii; settings: for MIC without PB/MIC + PB: A. baumannii J2
# [5] = system: A. baumannii A489; test: as above; assay type: cell-based, Acinetobacter baumannii; settings: for MIC without PB/MIC + PB: A. baumannii A489; for MIC: Acinetobacter baumannii
# [6] = system: Acinetobacter sp. (H064200250); test: Preliminary MBC without and with sub-inhibitory polymyxin B (Example 4); assay type: cell-based; settings: Acinetobacter
# Method in brief: (§1)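 Bactericidal endpoint scored visually on plates incubated at 37° C (18-20 hours): the lowest concentration where growth fell about 90% versus the positive control, generally leaving one colony or none.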
# [7] = system: A. baumannii A473; test: as above; assay type: cell-based, Acinetobacter baumannii; settings: Acinetobacter baumannii, A473, A. baumannii A473, +0.06 μg/ml PB, 2nd experiment, read-out: MBC
# Method in brief: as §1
# [8] = system: A. baumannii A390; test: as above; assay type: cell-based, Acinetobacter baumannii; settings: Acinetobacter baumannii, A390, A. baumannii A390, +0.06 μg/ml PB, 2nd experiment, read-out: MBC
# Method in brief: as §1
# [9] = system: A. baumannii NCTC 13301; test: as above; assay type: cell-based, Acinetobacter baumannii; settings: Acinetobacter baumannii, NCTC13301, read-out: MBC +[…] PB
# Method in brief: as §1
# [10] = system: A. baumannii A14; test: as above; assay type: cell-based, Acinetobacter baumannii; settings: 2nd experiment
# Method in brief: as §1
# [11] = system: A. baumannii A14; test: as above; assay type: cell-based, Acinetobacter baumannii; settings: A. baumannii A14; +0.06 μg/ml polymyxin B; preliminary MBC; 1st experiment
# [12] = system: A. baumannii A329; test: as above; assay type: cell-based, Acinetobacter baumannii; settings: Acinetobacter baumannii, A329, A. baumannii A329, +0.06 μg/ml PB, 2nd experiment, read-out: MBC
# [13] = system: A. baumannii A390; test: MIC without and with sub-inhibitory polymyxin B (Example 4); assay type: cell-based, Acinetobacter baumannii; settings: +0.06 μg/ml PB, 2nd experiment
# [14] = system: A. baumannii A472; test: Preliminary MBC without and with sub-inhibitory polymyxin B (Example 4); assay type: cell-based, Acinetobacter baumannii; settings: Acinetobacter baumannii, A472, read-out: MBC +[…] PB, A. baumannii A472; +[…] polymyxin B; preliminary MBC; 1st experiment
# [15] = system: A. baumannii A329; test: MIC without and with sub-inhibitory polymyxin B (Example 4); assay type: cell-based, Acinetobacter baumannii; settings: A. baumannii A329; +0.06 μg/ml PB; 2nd experiment
# [16] = system: A. baumannii ATCC 19606; test: Preliminary MBC without and with sub-inhibitory polymyxin B (Example 4); assay type: cell-based, Acinetobacter baumannii; settings: Acinetobacter baumannii
# [17] = system: A. baumannii ATCC 19606; test: MIC without and with sub-inhibitory polymyxin B (Example 4); assay type: cell-based, Acinetobacter baumannii; settings: for MIC without PB/MIC + PB: A. baumannii ATCC 19606; for MIC: Acinetobacter baumannii
# [18] = system: A. baumannii A473; test: as above; assay type: cell-based, Acinetobacter baumannii; settings: +0.06 μg/ml PB, 2nd experiment
# [19] = system: A. baumannii A14; test: as above; assay type: cell-based, Acinetobacter baumannii; settings: 1st experiment
# [20] = system: strains of A. baumannii and one strain of Acinetobacter sp.; test: MIC with sub-inhibitory concentrations (0.25x MIC) of polymyxin B, panel of Acinetobacter strains (Example 4); assay type: cell-based
# [21] = system: A. baumannii A14; test: MIC without and with sub-inhibitory polymyxin B (Example 4); assay type: cell-based, Acinetobacter baumannii; settings: 2nd experiment
# [22] = system: A. baumannii NCTC 13301; test: as above; assay type: cell-based, Acinetobacter baumannii
# [23] = system: A. baumannii A387; test: as above; assay type: cell-based, Acinetobacter baumannii
# [24] = system: Acinetobacter sp. (H064200250); test: as above; assay type: cell-based; settings: for MIC: Acinetobacter
# [25] = A. baumannii A14, +0.06 μg/ml PB
smiles,measurement,setting,value
"Cc1c(-c2ccc(CN)cc2)ccn2c(=O)c(C(=O)O)cc(C3CC3)c12 [Compound 5, 8-(4-aminomethyl-phenyl)-1-cyclopropyl-9-methyl-4-oxo-quinolizine-3-carboxylic acid]",MBC,[1],0.5 µg/mL
same,MBC,"[2]; A489, A. baumannii A489, +[…] PB, 2nd experiment, read-out: MBC",0.5 µg/mL
same,MBC,"[2]; A489, read-out: MBC +[…] PB, A. baumannii A489, +[…] polymyxin B, 1st experiment",1 µg/mL
same,MIC without PB/MIC + PB,[3],8
same,MIC without PB/MIC + PB,"[4]; +[…] PB, 2nd experiment",8
same,MIC without PB/MIC + PB,"[4]; ratio, PB […], 1st experiment",16
same,MIC,"[4]; Acinetobacter baumannii, J2, read-out: MIC +[…] PB, A. baumannii J2, +[…] polymyxin B, 1st experiment",0.5 µg/mL
same,MIC without PB/MIC + PB,"[5]; +[…] PB, 2nd experiment",16
same,MIC without PB/MIC + PB,"[5]; ratio, PB […], 1st experiment",8
same,MIC,"[5]; A489, A. baumannii A489, +[…] PB, 2nd experiment, read-out: MIC",0.5 µg/mL
same,MIC,"[5]; A489, read-out: MIC +[…] PB, A. baumannii A489, +[…] polymyxin B, 1st experiment",0.5 µg/mL
same,MBC,[6],4 µg/mL
same,MBC,"[6]; read-out: MBC +[…] PB, Acinetobacter spp. H064200250, +[…] polymyxin B, preliminary MBC, 1st experiment",1 µg/mL
same,MBC,[7],1 µg/mL
same,MBC,[8],2 µg/mL
same,MBC,[9],1 µg/mL
same,MBC,[10]; [25],4 µg/mL
same,MBC,"[10]; Acinetobacter baumannii, A14, A. baumannii A14, without PB, read-out: MBC",16 µg/mL
same,MBC +0.06 μg/ml PB,[11],8 µg/mL
same,MBC,[12],8 µg/mL
same,MIC without PB/MIC + PB,[13]; A. baumannii A390,4
same,MIC,"[13]; Acinetobacter baumannii, A390, A. baumannii A390, read-out: MIC",2 µg/mL
same,MBC,[14],1 µg/mL
same,MIC without PB/MIC + PB,[15],1
same,MBC,"[16]; ATCC19606, A. baumannii ATCC 19606, +0.06 μg/ml PB, 2nd experiment, read-out: MBC",0.06 µg/mL
same,MBC,"[16]; ATCC19606, read-out: MBC +0.06 μg/ml PB, A. baumannii ATCC 19606, +0.06 μg/ml polymyxin B, 1st experiment",0.06 µg/mL
same,MIC without PB/MIC + PB,"[17]; +0.06 μg/ml PB, 2nd experiment",8
same,MIC without PB/MIC + PB,"[17]; ratio, PB 0.06 μg/ml, 1st experiment",4
same,MIC,"[17]; ATCC19606, A. baumannii ATCC 19606, +0.06 μg/ml PB, 2nd experiment, read-out: MIC",0.06 µg/mL
same,MIC,"[17]; ATCC19606, read-out: MIC +0.06 μg/ml PB, A. baumannii ATCC 19606, +0.06 μg/ml polymyxin B, 1st experiment",0.06 µg/mL
same,MIC without PB/MIC + PB,[18]; A. baumannii A473,8
same,MIC,"[18]; Acinetobacter baumannii, A473, A. baumannii A473, read-out: MIC",1 µg/mL
same,MIC +0.06 μg/ml PB,[19]; +0.06 μg/ml polymyxin B,4 µg/mL
same,MIC without PB/MIC + PB,"[19]; ratio, PB 0.06 μg/ml",8
same,"Range ratios MIC without PB/MIC with PB Oct. 1, 2008 n = 8",[20]; 1st experiment,8-16
same,"MIC range with PB (0.25x MIC) Oct. 1, 2008 n = 8","[20]; 1st experiment, […] polymyxin B, ATCC 19606, A329, A390 and A473 not taken",0.25 to 4 µg/mL
same,"Range ratios MIC without PB/MIC with PB Oct. 14, 2008 n = 11",[20]; 2nd experiment,4-32
same,"MIC range with PB (0.25x MIC) Oct. 14, 2008 n = 11","[20]; 2nd experiment, 0.06 μg/ml polymyxin B, all strains except the ATCC strain",0.25 to 8 µg/mL
same,MIC,[21]; [25],4 µg/mL
same,MIC without PB/MIC + PB,[21]; [25],4
same,MIC,"[21]; Acinetobacter baumannii, A14, A. baumannii A14, without PB, read-out: MIC",16 µg/mL
same,MIC without PB/MIC + PB,"[22]; A. baumannii NCTC 13301, ratio, PB […], 1st experiment",16
same,MIC,"[22]; Acinetobacter baumannii, NCTC13301, read-out: MIC +[…] PB",1 µg/mL
same,MIC without PB/MIC + PB,"[23]; A. baumannii A387, +0.06 μg/ml PB, 2nd experiment",4
same,MIC +0.06 μg/ml PB,"[23]; A. baumannii A387, +0.06 μg/ml polymyxin B, 1st experiment",0.25 µg/mL
same,MIC without PB/MIC + PB,"[23]; A. baumannii A387, ratio, PB 0.06 μg/ml, 1st experiment",8
same,MIC,"[23]; Acinetobacter baumannii, A387, A. baumannii A387, +0.06 μg/ml PB, 2nd experiment, read-out: MIC",1 µg/mL
same,MIC,[24],4 µg/mL
same,MIC without PB/MIC + PB,"[24]; Acinetobacter spp. H064200250 (OXA51), +[…] PB, 2nd experiment",4
same,MIC without PB/MIC + PB,"[24]; Acinetobacter spp. H064200250, ratio, PB […], 1st experiment",16
same,MIC,"[24]; read-out: MIC +[…] PB, Acinetobacter spp. H064200250, +[…] polymyxin B, 1st experiment",1 µg/mL
